Measured values reported in patent US20110039763A1, “TARGETED ANTIMICROBIAL MOIETIES” (C3 JIAN, INC., priority 2009, published 2011).
“Also recorded” adds a separate entry of the source.

Key:
microorganisms [1] = assay: Targeting peptide binding to target microorganisms (Tables 3, 10, 12); details: microorganism(s) the targeting peptide binds; binding in aqueous buffers varied with peptide solubility, preferably 1x PBS
microorganisms [2] = assay: Morphology, biofilm and growth disrupting peptides (Table 5); format: cell-based; parameters: key: A: Peptide aggregates; B: Less hyphal formation; Clumps; Diffuse clumps and small polyps; F: Diffuse growth; H: Thin; I: Growth inhibition; Microcolony formation; Rippled; Small polyps; Thick; W: Halo formation on top, microlonies on bottom
Excerpt: In certain embodiments peptides that induce alterations in phenotype or other biological activities can also be used as antimicrobial effector moieties.

microorganisms [3] = assay: Peptide activities: targeting/binding, antimicrobial, growth or phenotype altering (Tables 7, 8); format: cell-based; details: peptides having multiple activities

Substance	Target(s) (microorganisms [1])	Organism, effect (microorganisms [2]; S. pneumoniae)	Activities (microorganisms [3])	Organism, effect (microorganisms [2]; C. jejuni)	Organism, effect (microorganisms [2]; E. coli)	Organism, effect (microorganisms [2]; MRSA)	Organism, effect (microorganisms [2]; S. epidermidis)	Organism, effect (microorganisms [2]; E. faecalis)
PF-573: peptide having multiple activities (EKKLIVKLIDSIGKSHEEIVGAG; Peptide with targeting and/or antimicrobial activity)	S. epidermidis; also recorded: S. pneumoniae	S. pneumoniae (C)	G B					
PF-576: peptide having multiple activities (AYSGELPEPLVRKMSKEQVRSVMGK; Peptide with targeting and/or antimicrobial activity)	M. luteus; also recorded: P. mirabilis; also recorded: E. coli; also recorded: P. aeruginosa; also recorded: C. albicans; also recorded: S. pneumoniae	S. pneumoniae (C)	G B	C. jejuni (C)	E. coli (A)	MRSA (R)	S. epidermidis (A)	
PF-584: peptide having multiple activities (chain 1 SYIKNLSNQKFLIAF; chain 2 SYIKNLSNQKFLIAF; Peptide with targeting and/or antimicrobial activity)	S. epidermidis and M. luteus and P. mirabilis and C. albicans and MRSA and S. pneumoniae and E. faecalis and C. jeikeium	S. pneumoniae (D)	G B	C. jejuni (D)	E. coli (C)	MRSA (D)	S. epidermidis (C)	E. faecalis (D)
PF-585: peptide having multiple activities (chain 1 DYNHLLNVVQDWVNTN; chain 2 DYNHLLNVVQDWVNTN; Peptide with targeting and/or antimicrobial activity)	S. epidermidis and E. coli and C. albicans and MRSA and S. pneumoniae and C. jeikeium	S. pneumoniae (R)	G B	C. jejuni (R)		MRSA (S)	S. epidermidis (S)	E. faecalis (A)
PF-588: peptide having multiple activities (chain 1 ESVEAIKAKAIK; chain 2 ESVEAIKAKAIK; Peptide with targeting and/or antimicrobial activity)	S. epidermidis; also recorded: E. coli; also recorded: C. albicans; also recorded: E. faecalis; also recorded: C. jeikeium; also recorded: C. jejuni		G B					E. faecalis (A)
PF-590: peptide having multiple activities (chain 1 YYQAKLFPLL; chain 2 YYQAKLFPLL; Peptide with targeting and/or antimicrobial activity)	S. epidermidis; also recorded: M. luteus; also recorded: E. coli; also recorded: E. faecalis; also recorded: C. jeikeium		G B	C. jejuni (R)				
PF-593: peptide having multiple activities (chain 1 MEISTLKKEKLHVKDELSQYLANYKK; chain 2 MEISTLKKEKLHVKDELSQYLANYKK; Peptide with targeting and/or antimicrobial activity)	C. jeikeium		G B					E. faecalis (A)
PF-594: peptide having multiple activities (chain 1 IVSAIV; chain 2 IVSAIV; Peptide with targeting and/or antimicrobial activity)	C. jeikeium		G B					E. faecalis (C)
